Source: patent US20140315975A1, “APOPTOSIS-INDUCING AGENT” (NITTO DENKO CORPORATION, priority 2011, published 2014)

Test system: M7609 cells
Experiment: Apoptosis induction by TUNEL staining
Format: cell-based
Protocol: A TUNEL method was carried out as follows using an In Situ Cell Death Detection Kit, POD (Roche). GST-π knockdown cells obtained by the procedure of Example 1 (2) were plated on a cover slip placed in a 35 mm plastic tissue culture dish so as to give 1×10^5 cells/2 mL. After the medium was aspirated, 4% paraformaldehyde in PBS was added, and incubation was carried out at room temperature for 60 min., thus fixing the cells. In order to carry out blocking of endogenous peroxidase, incubation was carried out with 3% H2O2 in methanol at room temperature for 10 min. Subsequently, permeabilization of cells was carried out by treating with 0.1% Triton X-100 in 0.1% sodium citrate on ice for 2 min. The TUNEL reaction was carried out in a humidity chamber at 37° C. for 60 min. Detection of TUNEL-positive cells was carried out by a coloration reaction using a DAB substrate after reacting a peroxidase labeled anti-fluorescein antibody at 37° C. for 30 min. Counter staining was carried out using hematoxylin, stained cells were examined under an optical microscope, and TUNEL-positive cells were evaluated as apoptotic cells. Washing between the operations was carried out by rinsing with PBS.

## GST-π siRNA: GST-π siRNA (SEQ ID No: 1: GGGAGGCAAGACCUUCAUUTT, siRNA ID#2385, Ambion) (chemistry not given here)
1 to 4 days after transfection (FIG. 10)
  proportion of apoptosis-positive cells (TUNEL-positive per 1000 cells): gradually but continuously increased up to 4th day
3rd to 5th day after transfection, stained images (FIG. 9)
  TUNEL-positive cells (apoptosis): TUNEL-positive cells, that is, apoptosis, was observed
